{"source": "patent US11382914B2", "about": "“Usage and dosage of therapeutic agents for endometriosis” (KISSEI PHARMACEUTICAL CO., LTD., priority 2016, dated 2022)", "key": {"[1]": {"test_system": "patients with endometriosis", "details": "for Changes in average NRS for pelvic pain (regardless of menstruation) between the pre-treatment period and the time of final assessment during the treatment period: oral once a day for 8 weeks", "description": "Clinical Trial 2 in Patients with Endometriosis (Randomized Non Blind Parallel-Group Comparison Study)\nTo 21 patients with endometriosis, Compound 2 was administered orally at a dose of 75 mg (11 patients) or 150 mg (10 patients) after breakfast once a day for 8 weeks. These groups are hereinafter referred to as a 75-mg administration group and a 150-mg administration group. The administration was started from the second to fifth days of menstruation."}, "[2]": {"test_system": "patients with endometriosis", "details": "for Changes in average NRS for pelvic pain (regardless of menstruation) between the pre-treatment period and the time of the final assessment during treatment: oral once a day for 12 weeks", "description": "Clinical Trial 1 in Patients with Endometriosis (Double-Blind Parallel-Group Comparison Study)\nTo 107 patients with endometriosis, Compound 2 at a dose of 50 mg (29 patients), 100 mg (26 patients) or 200 mg (28 patients) or a placebo (24 patients) was orally administered after breakfast once a day for 12 weeks. These groups are hereinafter referred to as a 50-mg administration group, a 100-mg administration group, a 200-mg administration group, and a placebo group. The administration was started from the second to fifth days of menstruation.\nAs evaluation scales for safety, for example, the occurrence of an adverse event, the occurrence of a side effect, and vaginal bleeding were evaluated."}, "[3]": {"details": "long-term study; cited from earlier work"}}, "note": "Where two headings read alike, the source gives them in different places."}
{"molecule": "3-[2-fluoro-5-(2,3-difluoro-6-methoxybenzyloxy)-4-methoxyphenyl]-2,4-dioxo-1,2,3,4-tetrahydrothieno[3,4-d]pyrimidine-5-carboxylic acid choline salt [Compound 2]", "values": [{"measurement": "Changes in average NRS for pelvic pain (regardless of menstruation) between the pre-treatment period and the time of final assessment during the treatment period", "setting": "[1]; 75-mg administration group", "value": "−0.94"}, {"measurement": "Median E2 concentrations during treatment", "setting": "[1]; 75-mg administration group, week 4", "value": 35, "unit": "pg/mL"}, {"measurement": "Median E2 concentrations during treatment", "setting": "[1]; 75-mg administration group, week 8", "value": 24, "unit": "pg/mL"}, {"measurement": "Changes in average NRS for pelvic pain (regardless of menstruation) between the pre-treatment period and the time of final assessment during the treatment period", "setting": "[1]; 150-mg administration group", "value": "−1.68"}, {"measurement": "Median E2 concentrations during treatment", "setting": "[1]; 150-mg administration group, week 4", "value": 10, "unit": "pg/mL"}, {"measurement": "Median E2 concentrations during treatment", "setting": "[1]; 150-mg administration group, week 8", "value": 10, "unit": "pg/mL"}, {"measurement": "Improvement of average NRS for pelvic pain", "setting": "[1]; all groups (75, 150 mg)", "value": "tendency of improvement"}, {"measurement": "Percentage of patients who had menstruation during treatment (Yes)", "setting": "[2]; 50 mg", "value": 72.4, "unit": "%"}, {"measurement": "Percentage of patients who had no menstruation during treatment (No)", "setting": "[2]; 50 mg", "value": 27.6, "unit": "%"}, {"measurement": "Percentage of patients who had menstruation during treatment (Yes)", "setting": "[2]; 100 mg", "value": 26.9, "unit": "%"}, {"measurement": "Percentage of patients who had no menstruation during treatment (No)", "setting": "[2]; 100 mg", "value": 73.1, "unit": "%"}, {"measurement": "Percentage of patients who had menstruation during treatment (Yes)", "setting": "[2]; 200 mg", "value": 3.6, "unit": "%"}, {"measurement": "Percentage of patients who had no menstruation during treatment (No)", "setting": "[2]; 200 mg", "value": 96.4, "unit": "%"}, {"measurement": "Number of cases where side effects associated with hypoestrogenism (hot flashes, headache, dizziness, hyperhidrosis) were developed", "setting": "[2]; 50-mg administration group (29 patients)", "value": 9}, {"measurement": "Changes in average NRS for pelvic pain (regardless of menstruation) between the pre-treatment period and the time of the final assessment during treatment", "setting": "[2]; 50-mg administration group", "value": "−1.13"}, {"measurement": "E2 concentrations during treatment", "setting": "[2]; 100-mg administration group", "value": "lower than 20 pg/mL"}, {"measurement": "Number of cases where side effects associated with hypoestrogenism (hot flashes, headache, dizziness, hyperhidrosis) were developed", "setting": "[2]; 100-mg administration group (26 patients)", "value": 12}, {"measurement": "Changes in average NRS for pelvic pain (regardless of menstruation) between the pre-treatment period and the time of the final assessment during treatment", "setting": "[2]; 100-mg administration group", "value": "−1.27"}, {"measurement": "E2 concentrations during treatment", "setting": "[2]; 200-mg administration group", "value": "lower than 20 pg/mL"}, {"measurement": "Number of cases where side effects associated with hypoestrogenism (hot flashes, headache, dizziness, hyperhidrosis) were developed", "setting": "[2]; 200-mg administration group (28 patients)", "value": 28}, {"measurement": "Changes in average NRS for pelvic pain (regardless of menstruation) between the pre-treatment period and the time of the final assessment during treatment", "setting": "[2]; 200-mg administration group", "value": "−1.33"}, {"measurement": "E2 secretion during treatment", "setting": "[2]; all groups (50, 100, 200 mg)", "value": "Suppression of E2 secretion was observed"}, {"measurement": "Improvement of average NRS for pelvic pain as compared to the placebo group", "setting": "[2]; all groups (50, 100, 200 mg) vs placebo", "value": "Significant improvements"}, {"measurement": "Temporal pain, observations by others, use rate of an analgesic agent, sizes of an ovarian chocolate cyst and the uterus, as compared to the placebo group", "setting": "[2]; groups administered 50, 100, 200 mg vs placebo", "value": "improved"}, {"measurement": "Occurrence of side effects associated with hypoestrogenism", "setting": "[2]; groups with E2 concentration of 20 pg/mL and/or more during treatment", "value": 28.2, "unit": "%"}, {"measurement": "Occurrence of side effects associated with hypoestrogenism", "setting": "[2]; groups with E2 concentration of less than 20 pg/mL during treatment", "value": 54.8, "unit": "%"}]}
{"molecule": "C[C@]12CCC3=C4CCC(=O)C=C4CC[C@H]3[C@@H]1CC[C@@]2(O)CC#N", "note": "[Dienogest, dienogest]", "values": [{"measurement": "Incidence of atypical genital bleeding as a side effect", "setting": "[3]", "value": 71.9, "unit": "%"}]}
